Reference: PubChem BioAssay AID330 (DTP/NCI, 2004)
Where “and” joins values, the source holds several entries; their conditions need not be identical. Equal entries are not always repeated. Inconclusive results and toxic doses are left out. How the source made its calls: active means survival T/C of 150% or more; inactive means T/C below 125% in these data.

System: P388 leukemia ip, CD2F1 mice, survival T/C
Assay: NCI In Vivo Anticancer Drug Screen. Data for tumor model P388 Leukemia (intraperitoneal) in CD2F1 (CDF1) mice
Conditions: endpoint: median survival time, higher = longer survival
How it was run: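 Mice carrying the transplanted tumor received test compound or vehicle. Survival was recorded in each group, and the value is the treated-group measurement divided by that of the vehicle-treated control group.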

[1] = dose: 100.0 mg/kg/injection, schedule: Q04DX003 (ip), vehicle: saline with Tween-80
[2] = dose: 200.0 mg/kg/injection, schedule: Q04DX003 (ip), vehicle: saline with Tween-80
[3] = dose: 50.0 mg/kg/injection, schedule: Q01DX005 (ip), vehicle: Klucel (hydroxypropylcellulose) (HPC)
[4] = dose: 100.0 mg/kg/injection, schedule: Q01DX005 (ip), vehicle: Klucel (hydroxypropylcellulose) (HPC)
[5] = dose: 200.0 mg/kg/injection, schedule: Q01DX005 (ip), vehicle: Klucel (hydroxypropylcellulose) (HPC)
[6] = dose: 60.0 mg/kg/injection, schedule: Q01DX005 (ip), vehicle: saline with Tween-80
[7] = dose: 120.0 mg/kg/injection, schedule: Q01DX005 (ip), vehicle: saline with Tween-80
[8] = dose: 240.0 mg/kg/injection, schedule: Q01DX005 (ip), vehicle: saline with Tween-80
[9] = dose: 12.5 mg/kg/injection, schedule: Q01DX009 (ip), vehicle: saline with Tween-80
[10] = dose: 25.0 mg/kg/injection, schedule: Q01DX009 (ip), vehicle: saline with Tween-80
[11] = dose: 50.0 mg/kg/injection, schedule: Q01DX009 (ip), vehicle: saline with Tween-80
[12] = dose: 50.0 mg/kg/injection, schedule: Q01DX009 (ip), vehicle: saline
[13] = dose: 100.0 mg/kg/injection, schedule: Q01DX009 (ip), vehicle: saline
[14] = dose: 200.0 mg/kg/injection, schedule: Q01DX009 (ip), vehicle: saline
[15] = dose: 100.0 mg/kg/injection, schedule: Q01DX009 (ip), vehicle: saline with Tween-80
[16] = dose: 200.0 mg/kg/injection, schedule: Q01DX009 (ip), vehicle: saline with Tween-80

Measured: T/C

Oc1cc(O)c2c(c1)OC(c1ccc(O)c(O)c1)C(O)C2O (configuration not stated)
inactive: dose: 50.0 mg/kg/injection, schedule: Q01DX005 (ip), vehicle: saline + Tween-80 + alcohol 98 % of control | dose: 100.0 mg/kg/injection, schedule: Q01DX005 (ip), vehicle: saline + Tween-80 + alcohol 98 % of control | dose: 200.0 mg/kg/injection, schedule: Q01DX005 (ip), vehicle: saline + Tween-80 + alcohol 92 % of control

Nc1cc(-c2ccccc2)cn1-c1nnc(-c2ccc(Br)cc2)s1
inactive: dose: 100.0 mg/kg/injection, schedule: Q01DX001 (ip), vehicle: Klucel (hydroxypropylcellulose) (HPC) 101 % of control | dose: 200.0 mg/kg/injection, schedule: Q01DX001 (ip), vehicle: Klucel (hydroxypropylcellulose) (HPC) 100 % of control | dose: 400.0 mg/kg/injection, schedule: Q01DX001 (ip), vehicle: Klucel (hydroxypropylcellulose) (HPC) 99 % of control

CCCSc1ccc([N+](=O)[O-])cc1
inactive: dose: 25.0 mg/kg/injection, schedule: Q04DX002 (ip), vehicle: saline with Tween-80 103 % of control | dose: 50.0 mg/kg/injection, schedule: Q04DX002 (ip), vehicle: saline with Tween-80 104 % of control | dose: 100.0 mg/kg/injection, schedule: Q04DX002 (ip), vehicle: saline with Tween-80 106 % of control

Cc1cc(Cl)ccc1NC(=O)COc1ccc(Cl)cc1Cl
inactive: dose: 50.0 mg/kg/injection, schedule: Q04DX003 (ip), vehicle: saline with Tween-80 100 % of control | [1] 95 % of control | [2] 90 % of control

COc1cc2ccccc2c2cc([N+](=O)[O-])oc12
inactive: [3] 110 % of control | [4] 101 % of control | [5] 110 % of control

O=C(O)CCC12CCC(=O)N1Cc1ccccc1C2=O (configuration not stated)
inactive: [6] 107 % of control | [7] 110 % of control | [8] 109 % of control

[Ag].[Ag].[NH-]S(=O)(=O)c1ccc(N=Nc2cc(N=Nc3ccc(S([NH-])(=O)=O)cc3)c3c(NC(=O)C(Cl)Cl)cccc3c2OC(=O)C(Cl)Cl)cc1.[c-]1nccs1.[c-]1nccs1
inactive: [9] 91 % of control | [10] 100 % of control | [11] 88 % of control and 93 % of control

Nc1nc(/C=C\c2ccccc2)cc(-c2cc(/C=C\c3ccccc3)nc(N)n2)n1
inactive: dose: 30.0 mg/kg/injection, schedule: Q01DX005 (ip), vehicle: Klucel (hydroxypropylcellulose) (HPC) 97 % of control | dose: 60.0 mg/kg/injection, schedule: Q01DX005 (ip), vehicle: Klucel (hydroxypropylcellulose) (HPC) 90 % of control and 94 % of control | dose: 120.0 mg/kg/injection, schedule: Q01DX005 (ip), vehicle: Klucel (hydroxypropylcellulose) (HPC) 97 % of control | dose: 240.0 mg/kg/injection, schedule: Q01DX005 (ip), vehicle: Klucel (hydroxypropylcellulose) (HPC) 95 % of control

Cc1ccc(NC(=S)SCc2ccc(Cl)c(Cl)c2)cc1Br
inactive: [12] 113 % of control | [13] 100 % of control | [14] 90 % of control | dose: 200.0 mg/kg/injection, schedule: Q01DX009 (ip), vehicle: suspension in saline 95 % of control

CC1(C)CCC/C(=C\c2ccccc2)C1(O)c1ccccn1 (configuration not stated)
inactive: [11] 97 % of control | [15] 98 % of control | [16] 100 % of control

CN(C(=O)C(Cl)Cl)c1ccc(-c2csc(-c3ccc(O)cc3)n2)cc1
inactive: dose: 100.0 mg/kg/injection, schedule: Q04DX003 (ip), vehicle: Klucel (hydroxypropylcellulose) (HPC) 100 % of control | dose: 200.0 mg/kg/injection, schedule: Q04DX003 (ip), vehicle: Klucel (hydroxypropylcellulose) (HPC) 99 % of control | dose: 400.0 mg/kg/injection, schedule: Q04DX003 (ip), vehicle: Klucel (hydroxypropylcellulose) (HPC) 99 % of control

CCCCCCCCCCCCSC(SCCCCCCCCCCCC)SCCCCCCCCCCCC
inactive: [9] 97 % of control | [10] 92 % of control | [11] 99 % of control | [15] 106 % of control

O=C(O)c1cc(OCc2ccccc2)cc(OCc2ccccc2)c1
inactive: [6] 96 % of control | [7] 102 % of control | [8] 106 % of control

CNC(C(=O)OC(C)(C)C)C(C)C (configuration not stated)
inactive: dose: 25.0 mg/kg/injection, schedule: Q01DX005 (ip), vehicle: saline 98 % of control | dose: 50.0 mg/kg/injection, schedule: Q01DX005 (ip), vehicle: saline 99 % of control | dose: 100.0 mg/kg/injection, schedule: Q01DX005 (ip), vehicle: saline 99 % of control

Cc1nc(Nc2ccccc2)c2c(-c3ccccc3)c[nH]c2n1
inactive: [3] 89 % of control | [4] 90 % of control | [5] 100 % of control

O=C1C2=C(Nc3ccccc3N2)OC1c1ccco1 (configuration not stated)
inactive: dose: 12.5 mg/kg/injection, schedule: Q01DX005 (ip), vehicle: Klucel (hydroxypropylcellulose) (HPC) 103 % of control | dose: 25.0 mg/kg/injection, schedule: Q01DX005 (ip), vehicle: Klucel (hydroxypropylcellulose) (HPC) 100 % of control | [3] 102 % of control and 89 % of control

O=C(c1ccccc1)N1CCCCC1
inactive: [12] 95 % of control | [13] 100 % of control | dose: 100.0 mg/kg/injection, schedule: Q04DX003 (ip), vehicle: saline 110 % of control | [14] 100 % of control | dose: 200.0 mg/kg/injection, schedule: Q04DX003 (ip), vehicle: saline 110 % of control

CCOc1c(N=Nc2ccc(OC)cc2)c(-c2ccccc2)nn1C(=S)S
inactive: dose: 50.0 mg/kg/injection, schedule: Q01DX005 (ip), vehicle: saline with Tween-80 102 % of control | dose: 100.0 mg/kg/injection, schedule: Q01DX005 (ip), vehicle: saline with Tween-80 103 % of control | dose: 200.0 mg/kg/injection, schedule: Q01DX005 (ip), vehicle: saline with Tween-80 102 % of control

O=C(Nc1nccs1)Nc1cc(F)ccc1F
inactive: dose: 25.0 mg/kg/injection, schedule: Q01DX009 (ip), vehicle: Klucel (hydroxypropylcellulose) (HPC) 90 % of control | dose: 50.0 mg/kg/injection, schedule: Q01DX009 (ip), vehicle: Klucel (hydroxypropylcellulose) (HPC) 90 % of control | dose: 100.0 mg/kg/injection, schedule: Q01DX009 (ip), vehicle: Klucel (hydroxypropylcellulose) (HPC) 90 % of control | dose: 200.0 mg/kg/injection, schedule: Q01DX009 (ip), vehicle: Klucel (hydroxypropylcellulose) (HPC) 90 % of control

CN1C(NN)=NS(=O)(=O)c2ccccc21
inactive: [6] 106 % of control | [7] 103 % of control | [8] 106 % of control

Cn1c(=O)c2cc(O)cnc2n(C)c1=O
inactive: [1] 95 % of control | [2] 91 % of control | dose: 400.0 mg/kg/injection, schedule: Q04DX003 (ip), vehicle: saline with Tween-80 86 % of control

COc1cc2c3c4c1OCc1c5c(cc(c1-4)CC3[N+](C)(C)CC2)OCO5 (configuration not stated)
inactive: dose: 25.0 mg/kg/injection, schedule: Q01DX001 (ip), vehicle: saline 100 % of control

C=CC#N
inactive: [11] 99 % of control | [15] 95 % of control | [16] 90 % of control

COC(=O)CC1C2(C)CC34OC5(C)OC6(C7CC(=O)OC(c8ccoc8)C7(C)CCC6(O5)C13C)C(OC(=O)C(C)C)C4(O)C2OC(=O)C(C)C (configuration not stated)
inactive: dose: 0.37 mg/kg/injection, schedule: Q01DX009 (ip), vehicle: Klucel (hydroxypropylcellulose) (HPC) 109 % of control | dose: 0.75 mg/kg/injection, schedule: Q01DX009 (ip), vehicle: Klucel (hydroxypropylcellulose) (HPC) 109 % of control | dose: 1.5 mg/kg/injection, schedule: Q01DX009 (ip), vehicle: Klucel (hydroxypropylcellulose) (HPC) 102 % of control | dose: 3.0 mg/kg/injection, schedule: Q01DX009 (ip), vehicle: Klucel (hydroxypropylcellulose) (HPC) 101 % of control
